Results: patent publication US20030032807A1, “Method for the production of 1-amino -3-aryl -uracils” (priority 2000, published 2003)

Test: logP determination by HPLC on reversed-phase column (C 18), EEC Directive 79/831 Annex V.A8
Assay type: physicochemical
Details: reversed-phase HPLC column (C 18); at pH=2.3; acid range eluents 0.1% aqueous phosphoric acid/acetonitrile; 43° C.
Procedure: The determination of the logP value given in Example 1 was carried out according to EEC Directive 79/831 Annex V.A8 by HPLC (High Performance Liquid Chromatography) using a reversed-phase column (C 18). Temperature: 43° C. (a) Eluents for determination in the acid range: 0.1% aqueous phosphoric acid, acetonitrile; linear gradient from 10% acetonitrile to 90% acetonitrile—corresponding measurements are marked in Table 1 by ^a). (b) Eluents for determination in the neutral range: […] aqueous phosphate buffer solution, acetonitrile; linear gradient of 10% acetonitrile to 90% acetonitrile—corresponding measurements are marked in Table 1 by ^b). Calibration was carried out using unbranched alkan-2-ones (having from 3 to 16 carbon atoms), whose logP values are known (determination of logP values using the retention times by linear interpolation between two consecutive alkanones).

Nn1c(C(F)(F)F)cc(=O)n(-c2ccc(Br)cc2F)c1=O [Example 1, 1-amino-3-(4-bromo-2-fluorophenyl)-6-trifluoromethyl-2,4-(1H,3H)-pyrimidinedione]
chromatographic logP: 2.41

CCS(=O)(=O)N(C(=O)c1ccccc1)c1cc(-n2c(=O)cc(C(F)(F)F)n(N)c2=O)c(F)cc1C#N [Example 8, N-benzoyl-N-[2-cyano-5-(3-amino-2,6-dioxo-4-trifluoromethyl-3,6-dihydro-1-(2H)-pyrimidinyl)-4-fluorophenyl]ethanesulphonamide]
chromatographic logP: 2.82
